Data from PMC9143577, “Cationic Geminoid Peptide Amphiphiles Inhibit DENV2 Protease, Furin, and Viral Replication” (Molecules, 2022).
“Also recorded” adds a separate entry of the source. Where a SMILES comes first, the peptide text is derived from it. The star is where a group is joined. Palmitoyl = CCCCCCCCCCCCCCCC(=O)*; NHhexadecyl = CCCCCCCCCCCCCCCCN*; AMC = Cc1cc(=O)oc2cc(N*)ccc12; Cbz = O=C(OCc1ccccc1)*

B1: C15H31C(O)-Lys-(Gly)2-Lys-NHC16H33 (C16-KG2K-C16) (peptide)
peptide: Palmitoyl-KGGK-NHhexadecyl
SMILES: CCCCCCCCCCCCCCCCNC(=O)[C@H](CCCCN)NC(=O)CNC(=O)CNC(=O)[C@H](CCCCN)NC(=O)CCCCCCCCCCCCCCC
B2: C15H31C(O)-Lys-(Ala)2-Lys-NHC16H33 (C16-KA2K-C16) (peptide)
peptide: Palmitoyl-KAAK-NHhexadecyl
SMILES: CCCCCCCCCCCCCCCCNC(=O)[C@H](CCCCN)NC(=O)[C@H](C)NC(=O)[C@H](C)NC(=O)[C@H](CCCCN)NC(=O)CCCCCCCCCCCCCCC

Experiments:
[1] = Critical micelle concentration by pyrene fluorescence; format: physicochemical; conditions: pure water
Procedure: Pyrene was used as a probe to study the changes in its fluorescence, in particular the ratio (I1/I3) of the intensities I1 and I3 […] 373 and 383 nm, respectively. An abrupt change in this ratio with increasing surfactant concentration points to an increase in hydrophobicity of the environment of the probe corresponding to the formation of aggregates. See Supporting Information for details.
Determ ination of the critical m icelle concentrat ion (CMC)
A solution of 5 mg pyrene in methanol (10 mL) was prepared and diluted 20 times. 50 µ L from the dil uted solution was added to geminoid solutions in water to a final volume of 3 mL. The geminoid samples were made from a stock solution of 500 µ M in water in a concentration range from 5 to 200 µ M. The fluorescence spectra were then measured after 1 hour wi th the […] set to 334 nm and emission range 350- 500 nm, excitation slit […], emission slit […] and at 25 °C. The ratio of the intensities was then plotted against the geminoid concentration, and the CMC is calculated from the intersection point of the best fits to the data points below and above it (Fig ure S5).
(§1) Concentration (µM) Concentration (µM)
Concentration (µM)Concentration (µM) Concentration (µM)Concentration (µM)
(1 picture or pasted object on this page, not shown here)

[2] = biological target: T1, human furin (Homo sapiens, UniProt P09958); test: Furin inhibition assay with MCA substrate (Ac-RVRR-MCA); format: biochemical; conditions: 0.76 nM furin, pH 7.0, 37 °C, read-out: IC50 (MCA Substrates) Furin
Text: Enzyme expression and purification
DENV2 Protease Preparation. The enzyme was expressed and purified as previously described (ref. S1). […]
subjected to sonication, and centrifuged again. The supernatant was collected and passed […]
Human Furin Preparation. The enzyme was expressed and purified as previously described (ref. S3). Briefly, The PCMV-Fur_S vector containing cDNA […]
Human furin was purifi ed […]
substrate Abz-[…]- EDDnp.
Target sequence in this assay (P09958 108-576 limits assumed): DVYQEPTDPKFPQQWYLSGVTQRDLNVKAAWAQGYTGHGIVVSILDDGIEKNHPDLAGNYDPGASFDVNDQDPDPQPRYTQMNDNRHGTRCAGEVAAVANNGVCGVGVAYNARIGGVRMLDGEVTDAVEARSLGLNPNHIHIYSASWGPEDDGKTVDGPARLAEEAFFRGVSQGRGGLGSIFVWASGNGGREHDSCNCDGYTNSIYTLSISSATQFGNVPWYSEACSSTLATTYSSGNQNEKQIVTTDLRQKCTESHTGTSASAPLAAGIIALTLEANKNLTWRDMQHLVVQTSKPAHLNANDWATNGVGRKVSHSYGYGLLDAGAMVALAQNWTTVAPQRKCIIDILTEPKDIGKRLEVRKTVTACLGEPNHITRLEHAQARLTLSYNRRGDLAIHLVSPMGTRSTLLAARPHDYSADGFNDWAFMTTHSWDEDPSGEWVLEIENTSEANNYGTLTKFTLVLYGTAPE

[3] = test system: wildtype DENV2 (DENV2 NGC); format: cell-based, DENV2 New Guinea strain; conditions: percentage of infected cells, 2 days after infection; for EC50: LLC-MK2 cells, read-out: DENV Replication in LLC-MK2 Cells EC50
Procedure: LLC-MK2 (Monkey Rhesus Kidney cells; CCL-7.1) were passaged in assay medium (EMEM (Lonza Cat No: BESP069F) supplemented with 10% heat-inactivated FCS (Lonza), 2% Pen/strep (Gibco), 2% L-Glutamine (Gibco), 2% Hepes (Lonza), and 1% sodium bicarbonate (Lonza)) prior to use in the antiviral assay. Cells were seeded in 96-well plates (10^5 cells/well) in assay medium to be exposed 16–24 h later to compounds and viruses. The plates were incubated at 37 °C/5% CO2 overnight to allow for cell adherence.
Compounds were solubilized in DMSO and evaluated using two-fold serial dilutions (8-points dose-response curves starting at a concentration of 50 µM) in duplicate for the antiviral assays. Compounds were diluted in assay medium at 1× test concentrations. Ribavirin (Sigma Aldrich, Amsterdam, The Netherlands) was evaluated as a positive control compound in the antiviral assays.
DENV2 New Guinea strain was grown in AP-61 insect cells (in-house cell bank) in complete Leibovitz medium containing 1% pen/strep (Gibco), 1% L-glutamin (Gibco), 0.5% Hepes (Lonza), 0.5% sodium bicarbonate (Lonza), and 10% tryptose phosphate for the production of stock virus pools. On the day of cellular infection, an aliquot of virus was removed from the freezer (−80 °C) and allowed to thaw in water in a biological safety cabinet. Virus was diluted into assay medium (10^4 TCID50), and 100 µL of this was added to each well, resulting in a TCID50 of 100. Cells were incubated for 2 h at 37 °C/5% CO2 and washed 3 times with blank assay medium. Directly after washing, 100 µL of the compound dilutions were added to each well.
Each plate contained cell control wells (cells only), virus control wells (cells plus virus), duplicate drug toxicity wells per compound (cells plus drug only), as well as duplicate experimental wells (drug plus cells plus virus).
Virus-infected cells were visualised using a DENV2 immunoperoxidase staining protocol. Two days after infection, cells were inactivated with ethanol 70% for 30 min and washed with PBS. Fixed plates were incubated with PBS containing 0.05% H2O2 for 20 min at 37 °C and washed again 3 times with PBS. Plates were incubated for 1 h with 50 µL monoclonal anti-DENV-2 NS1 antibody (Millipore; diluted 1:500 in EMEM). Samples were washed once with PBS containing 0.05% Tween20 and twice with PBS only. Secondary polyclonal goat anti-mouse IgG HRP (Dako; diluted 1:2000) was added 50 µL per well and incubated for 1 h at 37 °C in the dark. […] Bidest water was added after removal of the substrate solution, and all virus-positive cells per well (marked by brown/red staining) were counted under a microscope. […]

[4] = test system: trypsin; test: Trypsin inhibition assay with Z-FR-MCA; format: biochemical; conditions: 4 nM trypsin, 11.4 μM Z-FR-MCA; 100 mM Tris.HCl, pH 8.0, 10 mM CaCl2; read-out: IC50 (MCA Substrates) Trypsin
Procedure: The assay was carried out in 100 mM Tris.HCl, 10 mM CaCl2, pH 8.0, with 4 nM enzyme and 11.4 µM Z-FR-MCA substrate.

[5] = test system: DENV2 replicon; conditions: DENV2 HeLa replicon cells treated for 2 days; for inhibition of luciferase activity (DENV2 replicon): 10 µM
Procedure: (§2) To investigate the effect of geminoids on viral replication, we used HeLa cells containing a DENV2 replicon. Instead of the structural proteins of DENV2, the replicon encodes a luciferase reporter that can be used as a readout for DENV2 protease dependent virus replication. Cell viability was assessed on the same cells using a colourimetric assay based on 3-(4,5-dimethylthiazol-2-yl)-5-(3-carboxymethoxyphenyl)-2H-tetrazolium (MTS) reduction, and by light microscopy. […] The viability of unmodified HeLa cells after treatment with these compounds was also tested in a separate experiment using the Celltiter Blue Viability Assay (Promega, see Supporting Information) in the concentration range of 0.8–50 μM.
(§3) The replicon assay was carried out as described earlier using HeLa cells that contain a stably replicating DENV2 replicon expressing a luciferase reporter gene. The amphiphilic inhibitors were added as concentrated solutions in DMSO; the same amount of DMSO was used as the blank experiment, with the viral inhibitor ribavirin as a positive control. Luciferase activity and cell viability were assessed as described previously.

[6] = biological target: DENV2 protease (NS2B-NS3 construct CF40-…-NS3) (dengue virus serotype 2)
[7] = biological target: trypsin
[8] = biological target: T1, human furin
Target sequence in this assay (P09958 27-794): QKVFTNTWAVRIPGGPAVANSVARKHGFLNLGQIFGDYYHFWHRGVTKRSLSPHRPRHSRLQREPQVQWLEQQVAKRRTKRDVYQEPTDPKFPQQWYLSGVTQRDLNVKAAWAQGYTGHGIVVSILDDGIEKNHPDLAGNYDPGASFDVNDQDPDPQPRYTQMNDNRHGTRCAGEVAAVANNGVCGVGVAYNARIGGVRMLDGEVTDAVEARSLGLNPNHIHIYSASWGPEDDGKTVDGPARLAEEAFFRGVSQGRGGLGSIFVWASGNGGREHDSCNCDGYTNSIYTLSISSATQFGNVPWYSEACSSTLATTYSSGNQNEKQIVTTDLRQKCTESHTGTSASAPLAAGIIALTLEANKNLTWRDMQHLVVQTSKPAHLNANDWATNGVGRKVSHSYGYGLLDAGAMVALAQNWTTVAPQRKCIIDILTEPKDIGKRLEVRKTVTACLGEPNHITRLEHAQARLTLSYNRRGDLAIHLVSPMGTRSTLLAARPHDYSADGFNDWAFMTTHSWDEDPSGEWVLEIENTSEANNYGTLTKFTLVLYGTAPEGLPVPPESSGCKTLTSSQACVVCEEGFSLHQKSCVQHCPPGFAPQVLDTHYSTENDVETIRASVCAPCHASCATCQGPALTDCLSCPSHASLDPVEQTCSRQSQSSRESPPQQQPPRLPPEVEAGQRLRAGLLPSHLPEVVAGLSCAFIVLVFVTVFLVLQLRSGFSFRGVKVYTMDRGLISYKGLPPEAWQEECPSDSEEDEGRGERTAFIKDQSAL

[9] = test system: HeLa cells (wildtype); test: Celltiter Blue Viability Assay on unmodified HeLa cells; conditions: 24 h, 0.8–50 μM, highest concentration
Procedure: as §2, §1

[10] = test system: DENV2 HeLa replicon cells; conditions: 2 days, 0.3 to 10 µM
Procedure: as §2, §3

[11] = biological target: DENV2 protease (Dengue virus type 2, UniProt P14340); set-up: the vector with CF40 fused to NS3pro was used; hexahistidine (N); made in house; host or cells: E. coli strain SG13009; method as in PMID 17184724; conditions: ref [23], cited from earlier work
Sequence of DENV2 protease (P14340 1476-1653): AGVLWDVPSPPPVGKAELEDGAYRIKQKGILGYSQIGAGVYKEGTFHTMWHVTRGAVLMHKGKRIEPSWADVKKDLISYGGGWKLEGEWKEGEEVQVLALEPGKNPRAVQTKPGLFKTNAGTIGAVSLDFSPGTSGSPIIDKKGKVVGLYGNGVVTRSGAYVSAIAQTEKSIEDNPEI
Sequence of DENV2 protease (P14340 1398-1437): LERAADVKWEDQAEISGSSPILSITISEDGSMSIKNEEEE

| Molecule | CMC (Critical Micelle Concentration) [1] [µM] | EC50 [3] [µM] | IC50 [4] [µM] | inhibition of luciferase activity (DENV2 replicon) [5] [%] | IC50 of inhibition of DENV2 protease activity (20 nM enzyme, substrate Z-RR-MCA, 50 mM Tris.HCl pH 9.0, 20% glycerol, 37 °C) [6] [µM] | IC50 of inhibition of DENV2 protease activity (50 µM Tyr(3-NO2) substrate, 50 mM Tris.HCl pH 9.0, 10% ethylene glycol, 0.0016% Brij 58) [6] [µM] | IC50 of inhibition of trypsin activity (4 nM trypsin, 11.4 µM Z-FR-MCA, 100 mM Tris.HCl pH 8.0, 10 mM CaCl2) [7] [µM] | other results |
| --- | --- | --- | --- | --- | --- | --- | --- | --- |
| CCCCCCCCCCCCCCCCNC(=O)[C@H](CCCCN)NC(=O)[C@H](C)NC(=O)[C@H](CCCCN)NC(=O)CCCCCCCCCCCCCCC [Compound 2a, C15H31C(O)-Lys-(Ala)-Lys-NHC16H33.2TFA] | 48 to 58 | 4.1 ± 1.5 | 17.2 ± 0.66 | 62 |  |  |  | IC50 [2]: 3570 ± 180 nM; reduction of luciferase activity ([5]; 3 µM): 39% |
| C15H31C(O)-Lys-(Gly)-Lys-NHC16H33 (C16-KGK-C16) (peptide) |  |  |  |  | 1.94 | 2.1 | 41 |  |
| C15H31C(O)-Lys-(Ala)-Lys-NHC16H33 (C16-KAK-C16) (peptide) |  |  |  |  | 0.66 | 2.3 | 17.2 | IC50 of inhibition of furin activity (0.76 nM furin, substrate Ac-RVRR-MCA, 10 mM MES pH 7.0, 37 °C) [8]: 3.57 µM |
| CCCCCCCCCCCCCCCCNC(=O)[C@H](CCCCN)NC(=O)CNC(=O)CNC(=O)[C@H](CCCCN)NC(=O)CCCCCCCCCCCCCCC [Compound 3b] (Palmitoyl-KGGK-NHhexadecyl) | 30 |  |  |  |  |  |  | DENV Replication in LLC-MK2 Cells EC50 [3]: not active; toxicity in Celltiter Blue Viability Assay [9]: slight toxicity; also recorded: slight toxicities; cell viability (MTS assay), relative to DMSO control [10]: considerable cytotoxicity |
| C15H31C(O)-Lys-Lys-NHC16H33 (C16-KK-C16) (peptide) |  |  |  |  | 4.25 |  | 85.7 |  |
| CCCCCCCCCCCCCCCCNC(=O)[C@H](CCCCN)NC(=O)[C@H](C)NC(=O)[C@H](C)NC(=O)[C@H](CCCCN)NC(=O)CCCCCCCCCCCCCCC [Compound 2b, C15H31C(O)-Lys-(Ala)2-Lys-NHC16H33.2TFA] (Palmitoyl-KAAK-NHhexadecyl) | 41 | 3.1 ± 0.7 | 20.9 ± 0.34 | 47 |  |  |  | IC50 [2]: 2140 ± 100 nM |
| Cbz-Arg-Arg-{AMC} |  |  |  |  |  |  |  | kcat for hydrolysis of the substrate [11]: 0.11 s⁻¹; Km ([11]; read-out: KM for hydrolysis of the substrate): 247 µM |
| CCCCCCCCCCCCCCCCNC(=O)[C@H](CCCCN)NC(=O)CNC(=O)[C@H](CCCCN)NC(=O)CCCCCCCCCCCCCCC [Compound 3a] | 55 to 72 | 12.7 ± 1.1 | 41 ± 2 | 38 |  |  |  |  |
| B1 |  |  |  |  | 3.69 | 10.2 |  |  |
| B2 |  |  |  |  | 0.8 | 1.4 | 20.9 | IC50 of inhibition of furin activity (0.76 nM furin, substrate Ac-RVRR-MCA, 10 mM MES pH 7.0, 37 °C) [8]: 2.14 µM |
